Data set [1] concerns the target human GSK-3β (Homo sapiens, UniProt P49841). Nature of the data set: Assay (I): inhibition of GSK-3, 33P-ATP phosphorylation of a glycogen synthase derived substrate. The following applies: 35 μM substrate, 0.1 mM 33P-labeled ATP, 60 min at room temperature. It counts as biochemical. The protocol: Inhibition of GSK-3 by a test compound was evaluated using human GSK-3β and a glycogen synthase derived substrate with the following amino acid sequence:
In brief, GSK-3β was incubated with 35 μM substrate and varying concentrations of test compound in a buffer containing 0.1 mM ^33P-labeled ATP, 10 mM magnesium acetate, 8 mM MOPS pH 7.0, 0.2 mM EDTA, 0.1% dithiothreitol and 0.03% Triton-X100 for 60 min at room temperature. The reaction was performed using 96-well plates. The reaction was terminated by adding 13 μl 2% phosphoric acid to each well, and 10 μl was spotted onto P30 paper which was washed 4 times in 0.5% phosphoric acid to remove non-incorporated ^33P-labeled ATP. After drying the radioactivity was counted in a Wallac. Dose-response profiles were generated, and the IC50 value for inhibition of GSK-3 by the test compound was calculated using a four-parameter logistic function.

In data set [2] the test system is cyclin-dependent kinases (CDKs). The following applies: at the tested concentration; Table I of WO 99/21845; cited from earlier work.

Where a name gives a salt, the structure may show the parent alone. Where only a bound is given, the exact number is not on record here.

Usually melting point stands for the temperature of the solid-liquid transition. A word on the IC50: it is the point on the concentration scale where inhibition reaches its midpoint. Read a low IC50 as inhibition by little substance.

Sequence of human GSK-3β (P49841 whole entry): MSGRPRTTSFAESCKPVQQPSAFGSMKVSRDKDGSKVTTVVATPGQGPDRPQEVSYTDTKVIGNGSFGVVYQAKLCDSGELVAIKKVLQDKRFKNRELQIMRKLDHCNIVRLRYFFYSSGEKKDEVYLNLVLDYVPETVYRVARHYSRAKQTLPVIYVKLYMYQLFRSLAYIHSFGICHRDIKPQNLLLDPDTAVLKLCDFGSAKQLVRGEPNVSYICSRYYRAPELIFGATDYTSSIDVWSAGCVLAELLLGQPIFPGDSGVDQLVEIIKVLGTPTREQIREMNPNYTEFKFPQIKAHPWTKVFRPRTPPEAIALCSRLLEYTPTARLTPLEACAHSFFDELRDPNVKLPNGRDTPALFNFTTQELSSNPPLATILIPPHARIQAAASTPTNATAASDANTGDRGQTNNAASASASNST

As to `CN1CCN(CCCNc2nc(N)c(C(=O)c3ccc(Cl)s3)s2)CC1` (as salt: hydrochloride) [Example 8, {4-Amino-2-[3-(4-methylpiperazin-1-yl)propylamino]thiazol-5-yl}-(5-chlorothiophen-2-yl)methanone], the melting point lay in the range of 210 to 212 °C.
Regarding `CN1CCN(CCCNc2nc(N)c(C(=O)c3cccc(OCc4ccccc4)c3)s2)CC1` [Example 10, {4-Amino-2-[3-(4-methylpiperazin-1-yl)propylamino]thiazol-5-yl}-(3-benzyloxyphenyl)methanone], the IC50 in data set [1] is below 1 µM.
Still for that read-out and setting: then `CC(C)(C)OC(=O)N1CCC(Nc2nc(N)c(C(=O)c3cccc(OCc4ccccc4)c3)s2)CC1` [Example 5, 4-[4-Amino-5-(3-benzyloxybenzoyl)thiazol-2-ylamino]piperidine-1-carboxylic acid tert-butyl ester], with below 1 µM.
On to `CC(C)(C)OC(=O)NCCCNc1nc(N)c(C(=O)c2ccc(Cl)s2)s1` [Example 3, 3-[4-Amino-5-(5-chlorothiophene-2-carbonyl)thiazol-2-ylamino]propylcarbamic acid tert-butyl ester], for which the IC50 in data set [1] is below 1 µM.
Turning to `Nc1nc(NCCN2CCCCC2)sc1C(=O)c1ccc(F)cc1` [I(6)], the CDK inhibition result in data set [2] was “No CDK inhibition was observed”.
Molecule `Nc1nc(NCCCN2CCCC2=O)sc1C(=O)c1cccc(OCc2ccccc2)c1` [Example 9] gave a melting point of 184 °C. This molecule returned an IC50 in data set [1] below 1 µM.
`CC(C)(C)OC(=O)NCCCNc1nc(N)c(C(=O)c2cccc(OCc3ccccc3)c2)s1` [Example 6, {3-[4-Amino-5-(3-benzyloxybenzoyl)thiazol-2-ylamino]propyl}carbamic acid tert-butyl ester] returned an IC50 in data set [1] below 1 µM.
`Nc1nc(NCCCN2CCCC2=O)sc1C(=O)c1ccc(Cl)s1` [Example 7, 1-{3-[4-Amino-5-(5-chlorothiophene-2-carbonyl)thiazol-2-ylamino]propyl}pyrrolidin-2-one] showed a melting point of 224 to 225 °C. In data set [1], this molecule returned an IC50 below 1 µM.
With `CN1CCN(CCCNc2nc(N)c(C(=O)c3cccc(OCc4ccccc4)c3)s2)CC1` (as salt: hydrochloride) [Example 10, {4-Amino-2-[3-(4-methylpiperazin-1-yl)propylamino]thiazol-5-yl}-(3-benzyloxyphenyl)methanone], the melting point lay within 99 to 100 °C.

The values are drawn from patent publication US20040210063A1 (priority 2001, published 2004).
